According to ChEMBL document CHEMBL1201862, “PubChem BioAssay data set” (2004):
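Briefly, cells in 96-well plates were exposed to five compound concentrations for 48 h, and endpoints were estimated by linear interpolation. GI50 = concentration required for 50% inhibition of growth.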 Activity calls are given as the source filed them. Cut-off read from the data, not from the text of the source: active = GI50 up to about 1.1 µM and inactive = higher.

Legend:
Experiment in all cases: DTP human tumour cell line panel, 48 h
SK-MEL-5 = system: SK-MEL-5
A498 = system: A498
Malme-3M = system: Malme-3M
SNB-75 = system: SNB-75
NCI-H23 = system: NCI-H23
MDA-N = system: MDA-N
DMS-273 = system: DMS-273
NCI/ADR-RES = system: NCI/ADR-RES
NCI-H226 = system: NCI-H226
SR = system: SR
CAKI-1 = system: CAKI-1
786-0 = system: 786-0
ACHN = system: ACHN
PC-3 = system: PC-3
HOP-62 = system: HOP-62
NCI-H460 = system: NCI-H460
UO-31 = system: UO-31
U-251 = system: U-251
A549 = system: A549
OVCAR-4 = system: OVCAR-4
SN12C = system: SN12C
OVCAR-8 = system: OVCAR-8
DLD-1 = system: DLD-1
SNB-19 = system: SNB-19
TK-10 = system: TK-10
M14 = system: M14
M19-MEL = system: M19-MEL
RXF 393 = system: RXF 393
HT-29 = system: HT-29
LOX IMVI = system: LOX IMVI
XF498 = system: XF498
NCI-H522 = system: NCI-H522
K562 = system: K562
KM-20L2 = system: KM-20L2
MOLT-4 = system: MOLT-4
KM12 = system: KM12
MCF7 = system: MCF7
MDA-MB-231 = system: MDA-MB-231
OVCAR-3 = system: OVCAR-3
COLO 205 = system: COLO 205
SK-MEL-2 = system: SK-MEL-2
SF-268 = system: SF-268
BT-549 = system: BT-549
LXFL 529 = system: LXFL 529
DU-145 = system: DU-145
HOP-92 = system: HOP-92
SF-539 = system: SF-539
RPMI-8226 = system: RPMI-8226
SK-MEL-28 = system: SK-MEL-28
T47D = system: T47D
HL-60 = system: HL-60
SF-295 = system: SF-295
UACC-62 = system: UACC-62
HCC 2998 = system: HCC 2998
UACC-257 = system: UACC-257
IGROV-1 = system: IGROV-1
Hs-578T = system: Hs-578T
SNB-78 = system: SNB-78
CCRF-CEM = system: CCRF-CEM
MDA-MB-435 = system: MDA-MB-435
OVCAR-5 = system: OVCAR-5
HCT-15 = system: HCT-15
HCT-116 = system: HCT-116
SK-OV-3 = system: SK-OV-3
HOP-18 = system: HOP-18
DMS-114 = system: DMS-114
SW-620 = system: SW-620
EKVX = system: EKVX
RXF 631 = system: RXF 631

Measured: GI50

COc1cc2c3c(c1OC)-c1cc4c(cc1CC3(C#N)N(C(=O)c1ccccc1)CC2)OCO4 (centres undefined)
> 100 µM: HCT-15
inactive: SK-MEL-5 29.2 µM | A498 41.1 µM | Malme-3M 35.3 µM | SNB-75 9.12 µM | NCI-H23 25.5 µM | MDA-N > 100 µM | DMS-273 21.6 µM | NCI/ADR-RES > 60 µM | NCI-H226 37.8 µM | SR 65.9 µM | CAKI-1 37.9 µM | 786-0 29.1 µM | ACHN 40.4 µM | PC-3 > 76.4 µM | HOP-62 42.1 µM | NCI-H460 52.6 µM | UO-31 51.2 µM | U-251 21.1 µM | A549 37.5 µM | OVCAR-4 15.3 µM | SN12C 50.7 µM | OVCAR-8 20.7 µM | DLD-1 > 55.7 µM | SNB-19 22.2 µM | TK-10 36 µM | M14 54.2 µM | M19-MEL 46.8 µM | RXF 393 8.73 µM | HT-29 > 100 µM | LOX IMVI > 56.8 µM | XF498 6.25 µM | NCI-H522 28.2 µM | K562 73.5 µM | KM-20L2 > 80.9 µM | MOLT-4 68.4 µM | KM12 > 75.5 µM | MCF7 91.6 µM | MDA-MB-231 67.6 µM | OVCAR-3 40.5 µM | COLO 205 > 100 µM | SK-MEL-2 46.6 µM | SF-268 31.6 µM | BT-549 > 100 µM | LXFL 529 17.7 µM | DU-145 > 100 µM | HOP-92 8.39 µM | SF-539 17.7 µM | RPMI-8226 > 87.5 µM | SK-MEL-28 59.7 µM | T47D > 100 µM | HL-60 > 100 µM | SF-295 33.3 µM | UACC-62 16.4 µM | HCC 2998 > 100 µM | UACC-257 60.4 µM | IGROV-1 33 µM | Hs-578T 19.6 µM | SNB-78 11.4 µM | CCRF-CEM > 100 µM | MDA-MB-435 > 88.5 µM | OVCAR-5 > 56.2 µM | HCT-116 31.9 µM | SK-OV-3 25.7 µM | HOP-18 21.2 µM | DMS-114 26.5 µM | SW-620 87.9 µM | EKVX 45.8 µM

Cc1cc(C)nc(NS(=O)(=O)c2ccc(NC(=O)c3cccc4c(Nc5ccc(S(=O)(=O)N=C(N)N)cc5)c5ccc(Cl)cc5nc34)cc2)n1
39.4 µM: HCT-15
inactive: A498 > 100 µM | Malme-3M 85.1 µM | SNB-75 > 100 µM | NCI-H23 30.8 µM | SR 27.1 µM | 786-0 17.7 µM | ACHN 80.9 µM | HOP-62 43.7 µM | NCI-H460 42.8 µM | UO-31 41.8 µM | U-251 15.8 µM | RXF 631 28.6 µM | SN12C 29.8 µM | OVCAR-8 39.4 µM | DLD-1 17.7 µM | SNB-19 23.1 µM | TK-10 40 µM | M14 > 100 µM | M19-MEL 53.7 µM | RXF 393 18.9 µM | HT-29 33.1 µM | LOX IMVI 19.8 µM | XF498 > 100 µM | NCI-H522 18.2 µM | K562 26.2 µM | KM-20L2 59 µM | MOLT-4 15.6 µM | KM12 30.5 µM | OVCAR-3 22.2 µM | SF-268 41 µM | LXFL 529 27.6 µM | SF-539 17.2 µM | RPMI-8226 23.5 µM | SK-MEL-28 37.4 µM | SF-295 24.1 µM | UACC-62 34.4 µM | HCC 2998 19.8 µM | UACC-257 20.2 µM | SNB-78 40.6 µM | CCRF-CEM 21.4 µM | OVCAR-5 > 100 µM | HCT-116 17.4 µM | SK-OV-3 > 100 µM | DMS-114 45.7 µM | EKVX 30.8 µM
